Laboratory results as given in PubChem BioAssay (NCI).
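Results reflect a 48-hour exposure of cells in 96-well plates to compound at five concentrations. Abbreviation: GI50, concentration required for 50% inhibition of growth. TGI: total growth inhibition.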

Assays:
Assay in all cases: inhibition of tumour cell growth, NCI panel, 48 h
[1] = test system: NCI-H23 lung
[2] = test system: NCI-H460 lung
[3] = test system: NCI-H522 lung
[4] = test system: NCI/ADR-RES ovarian
[5] = test system: OVCAR-3 ovarian
[6] = test system: OVCAR-4 ovarian
[7] = test system: OVCAR-5 ovarian
[8] = test system: OVCAR-8 ovarian
[9] = test system: PC-3 prostate
[10] = test system: RPMI-8226 leukemia
[11] = test system: RXF 393 renal
[12] = test system: SF-268 CNS
[13] = test system: SF-295 CNS
[14] = test system: SF-539 CNS
[15] = test system: SK-MEL-2 melanoma
[16] = test system: SK-MEL-28 melanoma
[17] = test system: SK-MEL-5 melanoma
[18] = test system: SK-OV-3 ovarian
[19] = test system: SN12C renal
[20] = test system: SNB-19 CNS
[21] = test system: SNB-75 CNS
[22] = test system: SR leukemia
[23] = test system: SW-620 colon
[24] = test system: T-47D breast
[25] = test system: TK-10 renal
[26] = test system: U251 CNS
[27] = test system: UACC-257 melanoma
[28] = test system: UACC-62 melanoma
[29] = test system: UO-31 renal

C=C(C)[C@@H]1CC[C@]2(C(=O)OC)CC[C@]3(C)[C@H](CC[C@@H]4[C@@]5(C)CC[C@H](N)C(C)(C)[C@@H]5CC[C@]43C)[C@@H]12
TGI [1]: 3310 nM | GI50 [2]: 1430 nM | TGI [2]: 2860 nM | GI50 [3]: 1750 nM | TGI [3]: 3390 nM | GI50 [4]: 1850 nM | TGI [4]: 3510 nM | GI50 [5]: 1490 nM | TGI [5]: 2900 nM | GI50 [6]: 1830 nM | TGI [6]: 3580 nM | GI50 [7]: 1690 nM | TGI [7]: 3130 nM | GI50 [8]: 2040 nM | TGI [8]: 4400 nM | GI50 [9]: 1890 nM | TGI [9]: 4070 nM | GI50 [10]: 2720 nM | TGI [10]: 8810 nM | GI50 [11]: 1580 nM | TGI [11]: 3070 nM | GI50 [12]: 1810 nM | TGI [12]: 3490 nM | GI50 [13]: 1700 nM | TGI [13]: 3130 nM | GI50 [14]: 1630 nM | TGI [14]: 3000 nM | GI50 [15]: 2040 nM | TGI [15]: 4300 nM | GI50 [16]: 1680 nM | TGI [16]: 3080 nM | GI50 [17]: 1930 nM | TGI [17]: 3790 nM | GI50 [18]: 2220 nM | TGI [18]: 5450 nM | GI50 [19]: 1750 nM | TGI [19]: 3270 nM | GI50 [20]: 1720 nM | TGI [20]: 3240 nM | GI50 [21]: 1480 nM | TGI [21]: 2920 nM | GI50 [22]: 379 nM | TGI [22]: 3050 nM | GI50 [23]: 1140 nM | TGI [23]: 2490 nM | GI50 [24]: 1880 nM | TGI [24]: 3820 nM | GI50 [25]: 1890 nM | TGI [25]: 3470 nM | GI50 [26]: 1750 nM | TGI [26]: 3270 nM | GI50 [27]: 1890 nM | TGI [27]: 4020 nM | GI50 [28]: 1770 nM | TGI [28]: 3240 nM | GI50 [29]: 1510 nM | TGI [29]: 2840 nM
